Data from the NIST ThermoML archive (doi:10.1016/j.jct.2016.06.016).

Assay: refractive index (Na D-line) (dimensionless); xn = mol fraction of the nth substance listed
Conditions: 100 kPa, Liquid, Standard Abbe refractometry

CCOC(=O)CCC(=O)OCC [diethyl butanedioate] + CCCCO
refractive index
Conditions | x1 = 0.1 | x1 = 0.2001 | x1 = 0.3 | x1 = 0.3999 | x1 = 0.5 | x1 = 0.6001 | x1 = 0.6998 | x1 = 0.7999 | x1 = 0.8997 | x1 = 1
288.15 K | 1.4042 | 1.4069 | 1.4094 | 1.4116 | 1.4137 | 1.4156 | 1.4173 | 1.419 | 1.4204 | 1.4217
293.15 K | 1.4021 | 1.4048 | 1.4072 | 1.4094 | 1.4115 | 1.4134 | 1.4151 | 1.4168 | 1.4182 | 1.4195
298.15 K | 1.4 | 1.4027 | 1.405 | 1.4073 | 1.4093 | 1.4112 | 1.4129 | 1.4146 | 1.416 | 1.4173
303.15 K | 1.3979 | 1.4005 | 1.4029 | 1.4051 | 1.4071 | 1.409 | 1.4107 | 1.4123 | 1.4138 | 1.4151
308.15 K | 1.3958 | 1.3983 | 1.4007 | 1.4029 | 1.4049 | 1.4068 | 1.4085 | 1.4101 | 1.4116 | 1.4129
313.15 K | 1.3936 | 1.3962 | 1.3985 | 1.4007 | 1.4027 | 1.4046 | 1.4063 | 1.4079 | 1.4094 | 1.4108
318.15 K | 1.3915 | 1.394 | 1.3963 | 1.3985 | 1.4005 | 1.4024 | 1.4041 | 1.4058 | 1.4073 | 1.4088
323.15 K | 1.3894 | 1.3918 | 1.3942 | 1.3963 | 1.3983 | 1.4002 | 1.402 | 1.4036 | 1.4052 | 1.4067

CCOC(=O)CCC(=O)OCC [diethyl butanedioate] + CCCO
refractive index
Conditions | x1 = 0.1 | x1 = 0.2 | x1 = 0.2999 | x1 = 0.3998 | x1 = 0.4999 | x1 = 0.6001 | x1 = 0.7001 | x1 = 0.8002 | x1 = 0.8997 | x1 = 1
288.15 K | 1.394 | 1.3993 | 1.4037 | 1.4075 | 1.4107 | 1.4135 | 1.416 | 1.4182 | 1.4201 | 1.4217
293.15 K | 1.3918 | 1.3971 | 1.4016 | 1.4053 | 1.4085 | 1.4113 | 1.4138 | 1.416 | 1.4179 | 1.4195
298.15 K | 1.3897 | 1.395 | 1.3994 | 1.4031 | 1.4063 | 1.4091 | 1.4116 | 1.4138 | 1.4157 | 1.4173
303.15 K | 1.3876 | 1.3928 | 1.3972 | 1.4009 | 1.4041 | 1.4069 | 1.4094 | 1.4116 | 1.4135 | 1.4151
308.15 K | 1.3854 | 1.3906 | 1.3949 | 1.3986 | 1.4018 | 1.4047 | 1.4072 | 1.4094 | 1.4113 | 1.4129
313.15 K | 1.3831 | 1.3883 | 1.3927 | 1.3964 | 1.3996 | 1.4025 | 1.4049 | 1.4072 | 1.4091 | 1.4108
318.15 K | 1.3809 | 1.3861 | 1.3905 | 1.3942 | 1.3974 | 1.4002 | 1.4027 | 1.4049 | 1.4069 | 1.4088
323.15 K | 1.3787 | 1.3839 | 1.3882 | 1.392 | 1.3952 | 1.398 | 1.4005 | 1.4027 | 1.4048 | 1.4067

CCOC(=O)CCC(=O)OCC [diethyl butanedioate] + CCCCCCO
refractive index
Conditions | x1 = 0.0999 | x1 = 0.2 | x1 = 0.3001 | x1 = 0.4 | x1 = 0.4999 | x1 = 0.6 | x1 = 0.7002 | x1 = 0.7999 | x1 = 0.9 | x1 = 1
288.15 K | 1.4192 | 1.419 | 1.4189 | 1.4191 | 1.4193 | 1.4197 | 1.4202 | 1.4207 | 1.4212 | 1.4217
293.15 K | 1.4172 | 1.4169 | 1.4168 | 1.417 | 1.4172 | 1.4176 | 1.418 | 1.4185 | 1.419 | 1.4195
298.15 K | 1.4152 | 1.4148 | 1.4147 | 1.4148 | 1.415 | 1.4154 | 1.4158 | 1.4163 | 1.4168 | 1.4173
303.15 K | 1.4131 | 1.4127 | 1.4126 | 1.4127 | 1.4129 | 1.4133 | 1.4136 | 1.4142 | 1.4147 | 1.4151
308.15 K | 1.4111 | 1.4107 | 1.4105 | 1.4106 | 1.4108 | 1.4111 | 1.4115 | 1.412 | 1.4125 | 1.4129
313.15 K | 1.409 | 1.4086 | 1.4084 | 1.4084 | 1.4086 | 1.4089 | 1.4093 | 1.4098 | 1.4103 | 1.4108
318.15 K | 1.407 | 1.4065 | 1.4063 | 1.4063 | 1.4064 | 1.4068 | 1.4071 | 1.4076 | 1.4082 | 1.4088
323.15 K | 1.4049 | 1.4044 | 1.4042 | 1.4042 | 1.4043 | 1.4046 | 1.405 | 1.4054 | 1.406 | 1.4067
